Experimental findings from US6410594B1, “Substituted cyclopentane compounds useful as neuraminidase inhibitors” (Biocryst Pharmaceuticals, Inc., priority 1996, dated 2002) are described below.

Data set [1] deals with H1N9 Influenza Neuraminidase (Influenza A virus, UniProt P03472). The data set is described as follows: biochemical. Details: species or system influenza virus (H1N9 strain). Conditions: 10 min at 37° C.; read-out: Inhibition of H1N9 Influenza Neuraminidase IC50.
Sequence of H1N9 Influenza Neuraminidase (P03472 83-470 limits assumed): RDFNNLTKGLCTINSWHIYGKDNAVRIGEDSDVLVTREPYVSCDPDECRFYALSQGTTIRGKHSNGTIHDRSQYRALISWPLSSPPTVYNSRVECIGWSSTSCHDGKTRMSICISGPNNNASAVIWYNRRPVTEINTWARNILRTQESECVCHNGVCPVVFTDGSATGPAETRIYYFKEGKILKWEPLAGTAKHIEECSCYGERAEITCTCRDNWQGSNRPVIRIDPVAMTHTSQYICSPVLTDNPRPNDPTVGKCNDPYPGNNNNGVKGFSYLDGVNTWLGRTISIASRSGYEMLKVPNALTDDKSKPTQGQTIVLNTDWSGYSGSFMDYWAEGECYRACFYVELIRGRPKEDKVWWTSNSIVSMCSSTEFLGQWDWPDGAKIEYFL

The melting point is the temperature, or range, at which the solid turns liquid. The IC50 is the concentration at which inhibition is half-maximal. `CC(=O)NC(CO)[C@H]1CC(C(=O)O)C[C@@H]1NC(=N)N` (single isomer, unassigned; isomer a) [Example 6, 4β-{[(Amino)(imino)methyl]amino}-3α-[(2-hydroxy-1-methylcarbonylamino)ethyl]-1-cyclo-pentancarboxylic acid (isomer A at C-6)] gave a melting point of 121 to 122 °C. Moreover, the IC50 in data set [1] was determined as 90 µM.
On the same counts, the results for `CON(C)C(=O)C(NC(C)=O)[C@H]1C[C@](O)(C(=O)O)C[C@@H]1NC(=N)N` (stereo partly drawn) [Example 19, c-3-{[(Amino)(imino)methyl]amino}-t-1-hydroxy-t-4{(methylcarbonylamino){[(methyl)-(methoxy)amino]carbonyl}methyl}cyclopentan-r-carboxylic acid trifluoroacetic acid (1:1)] are 160 to 216 °C and 16 µM.
As to `CON(C)CCC(=O)C(NC(C)=O)[C@H]1CC(C(=O)O)C[C@@H]1NC(=N)N` (stereo partly drawn) [Example 20], the 50% inhibitory concentration (IC50) in data set [1] was found to be 8 µM.
Same read-out and setting: the same measure for `CCCN(CCC)C(=O)C(NC(C)=O)[C@H]1C[C@@](O)(C(=O)O)C[C@@H]1N=C(N)N` (stereo partly drawn) [Example 23, t-3-{[(Amino)(imino)methyl]amino}-c-4-[(di-n-propylaminocarbonyl)(methylcarbonylamino)-methyl]-t-hydroxycyclpentan-r-carboxylic acid trifluoroacetic acid (4:5)]: 0.47 µM.
